Test results taken from patent US9834571B2, “Compounds for inhibiting cell proliferation in EGFR-driven cancers” (ARIAD Pharmaceuticals, Inc., priority 2012, dated 2017).
pIC50: −log10 of the molar value. Like-named read-outs stand apart in the source and are kept apart here.

Tests used:
[1] = target: human EGFR (native sequence) (Homo sapiens, UniProt P00533); test: Kinase inhibitory activity against human EGFR (native sequence); type: biochemical; conditions: 10 μM ATP, read-out: IC50 for kinase inhibition, EGFR
Protocol: (§1) Kinase inhibitory activity of the compounds was measured against human EGFR (native sequence) and against EGFR bearing the L858R mution and the L858R/T790M double mutation (EGFR, L858R, and L858R/T790M, respectively in Table 1). Additional assays can be conducted with EGFR deletion mutants such as delE746-A750 with or without the additional T790M mutation. Assay conditions included 10 pt curves with 3 μM top concentration (singlicates) and 10 μM ATP.

EGFR L858R = EGFR L858R (Homo sapiens, UniProt P00533, L858R); test: Kinase inhibitory activity against EGFR bearing the L858R mutation; type: biochemical; conditions: 10 μM ATP, read-out: IC50 for kinase inhibition, EGFR L858R
Protocol: as §1

EGFR L858R/T790M = EGFR L858R/T790M (Homo sapiens, UniProt P00533, L858R/T790M); test: Kinase inhibitory activity against EGFR bearing the L858R/T790M double mutation; type: biochemical; conditions: 10 μM ATP, read-out: IC50 for kinase inhibition, EGFR L858R T790M
Protocol: as §1

[2] = target: T1, BaF3 cells expressing the target EGFR mutations (Homo sapiens, UniProt P00533, T790M, cells depend on it, form not given); test: Antiproliferative activity (MTT) against BaF3 cells expressing the target EGFR mutations; type: cell-based; conditions: BAF3 EGFR DEL T790M PURO POOL cells, read-out: IC50, BAF3 EGFR DEL T790M PURO POOL
T1 construct: IC50, BAF3 EGFR DEL T790M PURO POOL; other: BAF3 EGFR DEL T790M PURO POOL cells, MTT; other: BAF3 EGFR DEL T790M PURO POOL cells; MTT
Protocol: (§2) We also assessed the antiproliferative activity of compounds of Formula (I) against BaF3 cells expressing the target EGFR mutations or control (i.e., cell lines expressing wildtype EGFR). Assays were conducted using MTT.

[3] = target: T2, BaF3 cells expressing the target EGFR mutations (Homo sapiens, UniProt P00533, T790M/L858R, cells depend on it); test: as above; type: cell-based; conditions: BAF3 EGFR L858R-T790M PURO POOL cells, read-out: IC50, BAF3 EGFR L858R-T790M PURO POOL
T2 construct: IC50, BAF3 EGFR L858R-T790M PURO POOL; other: BAF3 EGFR L858R-T790M PURO POOL cells, MTT; IC50, BAF3 EGFR L858R-T790M PURO POOL; other: BAF3 EGFR L858R-T790M PURO POOL cells; MTT
Protocol: as §2

[4] = tested on: BaF3 cells expressing wildtype EGFR; test: Antiproliferative activity (MTT) against control BaF3 cells expressing wildtype EGFR; type: cell-based
Protocol: as §2

[5] = 10 pt curves, 3 μM top concentration
[6] = Mus musculus, BAF3 parental cells
[7] = EGFR L858R/T790M double mutation
[8] = Mus musculus, BAF3 PARENTAL cells (control)

human EGFR (native sequence), sequence (P00533 25-1210): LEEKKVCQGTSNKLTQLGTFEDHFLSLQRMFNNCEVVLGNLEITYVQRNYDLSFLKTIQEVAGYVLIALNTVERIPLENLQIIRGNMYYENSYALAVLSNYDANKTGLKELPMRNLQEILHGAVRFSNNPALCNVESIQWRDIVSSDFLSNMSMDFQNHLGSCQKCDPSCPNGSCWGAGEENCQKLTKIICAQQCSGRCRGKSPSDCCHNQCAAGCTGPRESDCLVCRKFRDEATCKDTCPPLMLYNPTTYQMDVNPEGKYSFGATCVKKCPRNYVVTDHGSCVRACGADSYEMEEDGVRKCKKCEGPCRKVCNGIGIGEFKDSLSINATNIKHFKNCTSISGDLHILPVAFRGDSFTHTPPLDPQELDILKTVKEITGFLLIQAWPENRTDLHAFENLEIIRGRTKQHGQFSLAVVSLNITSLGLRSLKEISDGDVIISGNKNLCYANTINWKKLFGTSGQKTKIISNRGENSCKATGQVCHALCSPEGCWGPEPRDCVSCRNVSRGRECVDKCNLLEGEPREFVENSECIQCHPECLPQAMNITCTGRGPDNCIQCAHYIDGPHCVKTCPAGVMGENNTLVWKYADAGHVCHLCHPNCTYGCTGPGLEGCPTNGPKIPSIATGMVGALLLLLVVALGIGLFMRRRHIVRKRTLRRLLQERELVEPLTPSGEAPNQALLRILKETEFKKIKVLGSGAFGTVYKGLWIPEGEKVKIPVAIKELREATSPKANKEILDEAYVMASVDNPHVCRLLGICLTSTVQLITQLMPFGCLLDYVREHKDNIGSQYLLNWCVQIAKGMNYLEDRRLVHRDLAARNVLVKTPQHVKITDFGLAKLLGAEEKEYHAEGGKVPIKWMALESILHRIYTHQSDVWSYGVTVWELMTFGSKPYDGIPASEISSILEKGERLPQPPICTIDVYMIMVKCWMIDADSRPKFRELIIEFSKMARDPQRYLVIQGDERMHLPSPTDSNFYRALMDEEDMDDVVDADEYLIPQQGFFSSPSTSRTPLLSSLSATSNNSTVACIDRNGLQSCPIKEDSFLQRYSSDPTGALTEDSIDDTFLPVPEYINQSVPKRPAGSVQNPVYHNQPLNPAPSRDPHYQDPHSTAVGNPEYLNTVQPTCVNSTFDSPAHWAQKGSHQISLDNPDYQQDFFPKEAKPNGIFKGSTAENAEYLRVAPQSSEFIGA
T1 sequence (P00533 with tags, fused parts or gaps DEL746-750/T790M, form open): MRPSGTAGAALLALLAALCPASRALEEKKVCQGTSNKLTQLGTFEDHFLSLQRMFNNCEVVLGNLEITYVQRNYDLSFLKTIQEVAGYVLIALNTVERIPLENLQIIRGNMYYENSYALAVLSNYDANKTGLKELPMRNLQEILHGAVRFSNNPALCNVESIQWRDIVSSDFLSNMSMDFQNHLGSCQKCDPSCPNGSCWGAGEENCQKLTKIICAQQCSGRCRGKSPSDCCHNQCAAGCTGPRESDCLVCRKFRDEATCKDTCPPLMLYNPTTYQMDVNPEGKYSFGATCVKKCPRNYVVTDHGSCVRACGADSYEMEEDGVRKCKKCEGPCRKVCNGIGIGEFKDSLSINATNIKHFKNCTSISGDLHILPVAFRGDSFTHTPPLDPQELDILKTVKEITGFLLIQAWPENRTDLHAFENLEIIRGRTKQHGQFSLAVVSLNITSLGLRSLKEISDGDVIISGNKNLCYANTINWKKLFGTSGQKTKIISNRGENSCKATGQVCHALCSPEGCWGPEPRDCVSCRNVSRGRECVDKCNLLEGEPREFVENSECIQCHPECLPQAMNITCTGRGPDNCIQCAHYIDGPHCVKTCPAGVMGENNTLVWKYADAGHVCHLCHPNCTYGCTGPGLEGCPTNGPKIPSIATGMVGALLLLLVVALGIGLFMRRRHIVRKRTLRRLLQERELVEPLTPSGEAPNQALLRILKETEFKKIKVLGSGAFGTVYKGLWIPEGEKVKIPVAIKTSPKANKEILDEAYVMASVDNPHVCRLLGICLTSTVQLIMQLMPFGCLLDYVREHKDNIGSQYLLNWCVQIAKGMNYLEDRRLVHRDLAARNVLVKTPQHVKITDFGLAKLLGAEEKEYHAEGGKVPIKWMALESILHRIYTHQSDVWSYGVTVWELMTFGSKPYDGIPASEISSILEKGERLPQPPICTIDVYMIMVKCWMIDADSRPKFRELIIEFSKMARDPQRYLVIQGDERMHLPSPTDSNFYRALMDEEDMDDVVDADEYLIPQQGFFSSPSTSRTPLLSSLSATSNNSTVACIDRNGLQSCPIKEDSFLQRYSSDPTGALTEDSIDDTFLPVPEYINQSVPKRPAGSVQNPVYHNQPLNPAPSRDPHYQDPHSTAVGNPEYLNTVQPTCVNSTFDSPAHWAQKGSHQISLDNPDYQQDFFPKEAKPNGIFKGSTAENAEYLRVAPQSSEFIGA
EGFR L858R/T790M, sequence (P00533 25-1210 T790M/L858R): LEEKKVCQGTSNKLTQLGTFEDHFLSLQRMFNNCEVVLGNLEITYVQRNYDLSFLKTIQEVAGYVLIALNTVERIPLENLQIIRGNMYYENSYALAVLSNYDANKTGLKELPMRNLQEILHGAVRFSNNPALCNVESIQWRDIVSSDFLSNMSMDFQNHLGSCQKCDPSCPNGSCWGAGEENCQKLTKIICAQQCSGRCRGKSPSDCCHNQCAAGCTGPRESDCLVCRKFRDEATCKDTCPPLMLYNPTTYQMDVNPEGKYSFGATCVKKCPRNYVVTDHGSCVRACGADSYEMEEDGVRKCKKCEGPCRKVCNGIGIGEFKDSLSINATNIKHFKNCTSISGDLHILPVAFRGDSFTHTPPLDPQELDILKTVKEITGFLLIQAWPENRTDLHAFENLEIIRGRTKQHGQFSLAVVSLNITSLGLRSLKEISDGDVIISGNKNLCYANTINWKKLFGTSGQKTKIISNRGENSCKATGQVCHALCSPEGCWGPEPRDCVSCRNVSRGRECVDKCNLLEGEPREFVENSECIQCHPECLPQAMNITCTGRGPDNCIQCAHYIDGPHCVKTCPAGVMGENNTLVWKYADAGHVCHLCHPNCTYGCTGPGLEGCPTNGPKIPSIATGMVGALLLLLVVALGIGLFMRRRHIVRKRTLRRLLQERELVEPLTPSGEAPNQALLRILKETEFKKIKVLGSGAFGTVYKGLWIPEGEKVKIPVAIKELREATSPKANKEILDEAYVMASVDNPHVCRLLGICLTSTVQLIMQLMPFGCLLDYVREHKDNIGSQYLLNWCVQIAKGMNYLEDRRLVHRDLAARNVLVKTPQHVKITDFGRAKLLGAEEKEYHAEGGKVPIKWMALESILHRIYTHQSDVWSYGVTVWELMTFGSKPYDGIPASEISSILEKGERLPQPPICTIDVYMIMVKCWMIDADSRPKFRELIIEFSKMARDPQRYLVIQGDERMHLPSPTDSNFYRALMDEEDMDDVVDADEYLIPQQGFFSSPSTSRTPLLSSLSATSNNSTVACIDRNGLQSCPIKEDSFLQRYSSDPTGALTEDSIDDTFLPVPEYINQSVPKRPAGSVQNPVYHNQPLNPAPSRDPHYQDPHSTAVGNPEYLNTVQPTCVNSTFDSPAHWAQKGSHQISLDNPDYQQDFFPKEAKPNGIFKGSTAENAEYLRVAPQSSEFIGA
EGFR L858R, sequence (P00533 25-1210 L858R): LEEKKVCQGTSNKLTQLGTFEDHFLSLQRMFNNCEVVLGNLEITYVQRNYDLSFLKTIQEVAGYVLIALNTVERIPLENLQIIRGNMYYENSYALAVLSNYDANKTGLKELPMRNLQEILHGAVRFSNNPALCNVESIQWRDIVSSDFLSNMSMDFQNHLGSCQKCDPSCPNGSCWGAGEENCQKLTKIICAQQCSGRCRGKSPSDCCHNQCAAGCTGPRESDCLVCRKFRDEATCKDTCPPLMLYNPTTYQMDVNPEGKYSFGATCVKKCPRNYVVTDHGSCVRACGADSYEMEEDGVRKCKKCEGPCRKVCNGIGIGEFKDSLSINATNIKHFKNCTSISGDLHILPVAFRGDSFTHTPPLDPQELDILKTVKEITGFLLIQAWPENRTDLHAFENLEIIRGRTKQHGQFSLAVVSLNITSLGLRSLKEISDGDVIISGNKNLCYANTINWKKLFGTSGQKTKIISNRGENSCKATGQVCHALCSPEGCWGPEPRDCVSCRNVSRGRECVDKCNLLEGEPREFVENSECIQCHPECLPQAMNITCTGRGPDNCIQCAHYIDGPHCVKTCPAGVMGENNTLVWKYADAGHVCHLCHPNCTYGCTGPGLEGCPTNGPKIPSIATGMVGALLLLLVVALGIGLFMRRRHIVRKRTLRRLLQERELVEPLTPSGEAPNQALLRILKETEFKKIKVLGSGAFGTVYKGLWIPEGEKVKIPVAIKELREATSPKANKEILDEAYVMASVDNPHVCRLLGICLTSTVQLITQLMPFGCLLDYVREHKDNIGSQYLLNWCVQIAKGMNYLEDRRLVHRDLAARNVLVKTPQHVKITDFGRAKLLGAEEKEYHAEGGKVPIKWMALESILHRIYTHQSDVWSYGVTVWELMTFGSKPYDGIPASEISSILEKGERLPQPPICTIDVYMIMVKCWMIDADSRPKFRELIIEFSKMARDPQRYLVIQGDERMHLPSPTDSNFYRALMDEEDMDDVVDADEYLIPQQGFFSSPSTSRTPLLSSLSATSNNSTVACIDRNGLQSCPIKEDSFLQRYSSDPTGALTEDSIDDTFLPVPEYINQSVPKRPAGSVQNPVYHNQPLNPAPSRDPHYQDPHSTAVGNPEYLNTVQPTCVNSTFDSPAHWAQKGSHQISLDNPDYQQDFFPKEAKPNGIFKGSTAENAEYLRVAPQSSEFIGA

| Compound | pIC50 [1, 5] | pIC50 (EGFR L858R; [5]) | pIC50 (EGFR L858R/T790M; [5]) | GI50 [2] [nM] | GI50 [3] [nM] | pIC50 [4, 6] | pIC50 ([1]; human EGFR native sequence) | pIC50 (EGFR L858R; EGFR L858R) | pIC50 (EGFR L858R/T790M; [7]) | pIC50 [4, 8] | pIC50 ([4]; BAF3 parental cells) |
| --- | --- | --- | --- | --- | --- | --- | --- | --- | --- | --- | --- |
| C=C(C)C(=O)Nc1cc(Nc2ncc(Cl)c(Nc3ccccc3P(C)(C)=O)n2)c(OC)cc1N1CC[C@@H](N(C)C)C1 (racemic) [Example 113, rac-(R)-N-(5-((5-chloro-4-((2-(dimethylphosphoryl)phenyl)amino)pyrimidin-2-yl)amino)-2-(3-(dimethylamino)pyrrolidin-1-yl)-4-methoxyphenyl)methacrylamide] | 6.60 to 7.00 | > 7.30 | > 7.30 | < 50 | < 50 | ≤ 6.60 | – | – | – | – | – |
| C=CC(=O)Nc1cc(Nc2ncc(Cl)c(Nc3ccccc3P(C)(C)=O)n2)c(OC)cc1O[C@@H]1CCCN(C)C1 (single isomer, unassigned) [Example 14] | – | – | – | < 50 | < 50 | – | > 7.30 | > 7.30 | > 7.30 | ≤ 6.60 | – |
| C=CC(=O)Nc1cc(Nc2ncc(Cl)c(Nc3ccccc3P(C)(C)=O)n2)c(OC)cc1O[C@H]1CCCN(C)C1 (single isomer, unassigned) [Example 16] | – | – | – | < 50 | < 50 | – | > 7.30 | > 7.30 | > 7.30 | ≤ 6.60 | – |
| C=CC(=O)Nc1cc(Nc2ncc(Cl)c(Nc3ccccc3P(C)(C)=O)n2)c(OC)cc1N1CC[C@@H](N(C)C)C1 (stereo in doubt) [Example 26, rac-(R)-N-(5-((5-chloro-4-((2-(dimethylphosphoryl)phenyl)amino)pyrimidin-2-yl)amino)-2-(3-(dimethylamino)pyrrolidin-1-yl)-4-methoxyphenyl)acrylamide] | – | – | – | < 50 | < 50 | – | > 7.30 | > 7.30 | > 7.30 | ≤ 6.60 | – |
| C=CC(=O)Nc1cc(Nc2ncc(Cl)c(Nc3ccccc3P(C)(C)=O)n2)c(OC)cc1N1CC[C@H](N(C)C)C1 (stereo in doubt) [Example 29, rac-(R)-N-(5-((5-chloro-4-((2-(dimethylphosphoryl)phenyl)amino)pyrimidin-2-yl)amino)-2-(3-(dimethylamino)pyrrolidin-1-yl)-4-methoxyphenyl)acrylamide] | – | – | – | < 50 | < 50 | – | > 7.30 | > 7.30 | > 7.30 | ≤ 6.60 | – |
| C=CC(=O)Nc1cc(Nc2ncc(Cl)c(Nc3ccccc3P(C)(C)=O)n2)c(OC)cc1OCCN1CCCC1 [Example 1, N-(5-((5-chloro-4-((2-(dimethylphosphoryl)phenyl)amino)pyrimidin-2-yl)amino)-4-methoxy-2-(2-(pyrrolidin-1-yl)ethoxy)phenyl)acrylamide] | – | – | – | < 50 | < 50 | – | > 7.30 | > 7.30 | > 7.30 | ≤ 6.60 | – |
| C=CC(=O)Nc1cc(Nc2ncc(Cl)c(Nc3ccccc3P(C)(C)=O)n2)c(OC)cc1OCCN1CCN(C)CC1 [Example 2, N-(5-((5-chloro-4-((2-(dimethylphosphoryl)phenyl)amino)pyrimidin-2-yl)amino)-4-methoxy-2-(2-(4-methylpiperazin-1-yl)ethoxy)phenyl)acrylamide] | – | – | – | ≥ 250 | – | – | 6.60 to 7.00 | > 7.30 | > 7.30 | ≤ 6.60 | – |
| C=CC(=O)Nc1cc(Nc2ncc(Cl)c(Nc3ccccc3P(C)(C)=O)n2)c(OC)cc1OCC1CCN(C)CC1 [Example 3, N-(5-((5-chloro-4-((2-(dimethylphosphoryl)phenyl)amino)pyrimidin-2-yl)amino)-4-methoxy-2-((1-methylpiperidin-4-yl)methoxy)phenyl)acrylamide] | – | – | – | 101 to 250 | ≥ 250 | – | 7.00 to 7.30 | > 7.30 | > 7.30 | ≤ 6.60 | – |
| C=CC(=O)Nc1cc(Nc2ncc(Cl)c(Nc3ccccc3P(C)(C)=O)n2)c(OC)cc1OCCN1CCOCC1 [Example 4, N-(5-((5-chloro-4-((2-(dimethylphosphoryl)phenyl)amino)pyrimidin-2-yl)amino)-4-methoxy-2-(2-morpholinoethoxy)phenyl)acrylamide] | – | – | – | 50 to 100 | 101 to 250 | – | > 7.30 | > 7.30 | > 7.30 | ≤ 6.60 | – |
| C=CC(=O)Nc1cc(Nc2ncc(Cl)c(Nc3ccccc3P(C)(C)=O)n2)c(OC)cc1OC1CN(C)C1 [Example 17, N-(5-((5-chloro-4-((2-(dimethylphosphoryl)phenyl)amino)pyrimidin-2-yl)amino)-4-methoxy-2-((1-methylazetidin-3-yl)oxy)phenyl)acrylamide] | – | – | – | 50 to 100 | 101 to 250 | – | – | – | – | ≤ 6.60 | – |
| C=CC(=O)Nc1cc(Nc2ncc(Cl)c(Nc3ccccc3P(C)(C)=O)n2)c(OC)cc1OCC1CCCN1C (stereo not shown) [Example 18, N-(5-((5-chloro-4-((2-(dimethylphosphoryl)phenyl)amino)pyrimidin-2-yl)amino)-4-methoxy-2-((1-methylpyrrolidin-2-yl)methoxy)phenyl)acrylamide] | – | – | – | < 50 | < 50 | – | – | – | – | ≤ 6.60 | – |
| C=CC(=O)Nc1ccc(F)c(Nc2ncc(Cl)c(Nc3ccccc3P(C)(C)=O)n2)c1 [Example 54, N-(3-((5-chloro-4-((2-(dimethylphosphoryl)phenyl)amino)pyrimidin-2-yl)amino)-4-fluorophenyl)acrylamide] | – | – | – | < 50 | < 50 | – | – | – | – | ≤ 6.60 | – |
| C=CC(=O)Nc1cc(Nc2ncc(Cl)c(Nc3ccccc3P(C)(C)=O)n2)c(OC)cc1OCC(CO)N(C)C (stereo not shown) [Example 66, N-(5-((5-chloro-4-((2-(dimethylphosphoryl)phenyl)amino)pyrimidin-2-yl)amino)-2-(2-(dimethylamino)-3-hydroxypropoxy)-4-methoxyphenyl)acrylamide] | – | – | – | 101 to 250 | ≥ 250 | – | – | – | – | ≤ 6.60 | – |
| C=CC(=O)N1CCc2cc(OC)c(Nc3ncc(Cl)c(Nc4ccccc4P(C)(C)=O)n3)cc21 [Example 127, 1-(6-((5-chloro-4-((2-(dimethylphosphoryl)phenyl)amino)pyrimidin-2-yl)amino)-5-methoxyindolin-1-yl)prop-2-en-1-one] | – | – | – | 101 to 250 | ≥ 250 | ≤ 6.60 | – | – | – | – | – |
| C=CC(=O)Nc1cc(Nc2ncc(Cl)c(Nc3ccccc3P(C)(C)=O)n2)c(C)cc1OC(COC)CN(C)C (stereo not shown) [Example 144, N-(5-((5-chloro-4-((2-(dimethylphosphoryl)phenyl)amino)pyrimidin-2-yl)amino)-2-((1-(dimethylamino)-3-methoxypropan-2-yl)oxy)-4-methylphenyl)acrylamide] | > 7.30 | – | – | < 50 | – | – | – | – | – | – | ≤ 6.60 |
| C=CC(=O)Nc1cc(Nc2ncc(Cl)c(Nc3ccccc3P(C)(C)=O)n2)c(Cl)cc1OC(COC)CN(C)C (stereo not shown) [Example 146, N-(4-chloro-5-((5-chloro-4-((2-(dimethylphosphoryl)phenyl)amino)pyrimidin-2-yl)amino)-2-((1-(dimethylamino)-3-methoxypropan-2-yl)oxy)phenyl)acrylamide] | > 7.30 | – | – | < 50 | – | – | – | – | – | – | ≤ 6.60 |
| C=CC(=O)Nc1cc(Cc2ncc(Cl)c(Nc3ccccc3P(C)(C)=O)n2)c(OC)cc1C#CCN1CCC(C)CC1 [Example 176, N-(5-((5-chloro-4-((2-(dimethylphosphoryl)phenyl)amino)pyrimidin-2-yl)methyl)-4-methoxy-2-(3-(4-methylpiperidin-1-yl)prop-1-yn-1-yl)phenyl)acrylamide] | > 7.30 | > 7.30 | > 7.30 | – | – | ≤ 6.60 | – | – | – | – | – |
| C=CC(=O)Nc1cc(Cc2ncc(Cl)c(Nc3ccccc3P(C)(C)=O)n2)c(OC)cc1C#CCN(C)C(C)(C)C [Example 177, N-(2-(3-(tert-butyl(methyl)amino)prop-1-yn-1-yl)-5-((5-chloro-4-((2-(dimethylphosphoryl)phenyl)amino)pyrimidin-2-yl)methyl)-4-methoxyphenyl)acrylamide] | > 7.30 | > 7.30 | > 7.30 | – | – | ≤ 6.60 | – | – | – | – | – |
